One substance from patent publication US9463216B2 (priority 2012, dated 2016) can be followed below.

The assay deals with PA (Bacillus anthracis, UniProt P13423). Format: binding, B. anthracis.
PA, sequence (P13423 30-764 limits assumed): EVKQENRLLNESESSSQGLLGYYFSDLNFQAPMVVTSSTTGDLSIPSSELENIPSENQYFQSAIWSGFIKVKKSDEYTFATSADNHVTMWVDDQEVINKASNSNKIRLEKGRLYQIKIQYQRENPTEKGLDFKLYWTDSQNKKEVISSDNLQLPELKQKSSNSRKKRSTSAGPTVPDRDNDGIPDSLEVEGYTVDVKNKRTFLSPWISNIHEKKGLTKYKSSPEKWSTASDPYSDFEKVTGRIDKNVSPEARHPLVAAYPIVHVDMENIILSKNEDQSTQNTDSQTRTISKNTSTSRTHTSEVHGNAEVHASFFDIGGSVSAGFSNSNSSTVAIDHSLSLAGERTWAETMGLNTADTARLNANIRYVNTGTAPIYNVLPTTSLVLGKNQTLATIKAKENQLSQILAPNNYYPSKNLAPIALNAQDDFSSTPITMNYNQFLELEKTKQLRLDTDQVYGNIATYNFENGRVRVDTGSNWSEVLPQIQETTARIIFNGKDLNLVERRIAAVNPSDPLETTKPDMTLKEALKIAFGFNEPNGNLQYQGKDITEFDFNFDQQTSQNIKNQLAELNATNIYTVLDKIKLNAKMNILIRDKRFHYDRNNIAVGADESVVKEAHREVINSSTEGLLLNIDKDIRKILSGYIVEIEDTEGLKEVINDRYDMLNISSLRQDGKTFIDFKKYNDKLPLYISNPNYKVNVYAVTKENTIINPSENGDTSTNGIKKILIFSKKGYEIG

As to poly-γ-D-glutamic acid [Compound 3], the “form complexes with PA” value is “can form complexes with PA”.
